The text below walks through data of US12600725B2 (Memorial Sloan-Kettering Cancer Center, priority 2013, dated 2026).

Where “and” joins values, the source holds several entries; their conditions need not be identical. Equal entries are not always repeated.

In one test the target is Hsp90α (Homo sapiens, UniProt P07900). Nature of the test: biochemical. To be noted: FP competition, 6 nM Cy3B-GM, 10 nM protein, 4° C. for 24 h.
The target in another test is T1, Trap-1 (Homo sapiens, UniProt Q12931).
T1 sequence (Q12931 60-704): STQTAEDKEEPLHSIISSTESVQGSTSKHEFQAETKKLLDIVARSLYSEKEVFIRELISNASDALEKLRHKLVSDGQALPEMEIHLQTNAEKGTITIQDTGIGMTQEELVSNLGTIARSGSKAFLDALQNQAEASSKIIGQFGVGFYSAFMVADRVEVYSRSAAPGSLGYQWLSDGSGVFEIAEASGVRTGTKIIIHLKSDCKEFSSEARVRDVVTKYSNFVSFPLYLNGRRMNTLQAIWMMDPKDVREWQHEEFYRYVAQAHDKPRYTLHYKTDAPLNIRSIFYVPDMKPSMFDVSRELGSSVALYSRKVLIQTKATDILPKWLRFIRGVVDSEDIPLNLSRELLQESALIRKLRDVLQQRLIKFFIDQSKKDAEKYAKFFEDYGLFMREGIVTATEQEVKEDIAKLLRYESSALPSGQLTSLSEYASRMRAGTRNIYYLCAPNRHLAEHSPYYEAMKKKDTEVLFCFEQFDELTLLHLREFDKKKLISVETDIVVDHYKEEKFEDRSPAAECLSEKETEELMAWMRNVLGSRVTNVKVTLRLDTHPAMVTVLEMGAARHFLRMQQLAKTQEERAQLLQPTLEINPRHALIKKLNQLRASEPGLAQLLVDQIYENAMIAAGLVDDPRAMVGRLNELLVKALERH
Briefly: biochemical.

The target of a further test is Grp94 (Canis lupus familiaris, UniProt P41148). The settings on record: read-out: Grp94; FP competition, 6 nM Cy3B-GM, 10 nM protein, 4° C. for 24 h.
Sequence of Grp94 (P41148 with tags, fused parts or gaps DELINS287-327GGGG): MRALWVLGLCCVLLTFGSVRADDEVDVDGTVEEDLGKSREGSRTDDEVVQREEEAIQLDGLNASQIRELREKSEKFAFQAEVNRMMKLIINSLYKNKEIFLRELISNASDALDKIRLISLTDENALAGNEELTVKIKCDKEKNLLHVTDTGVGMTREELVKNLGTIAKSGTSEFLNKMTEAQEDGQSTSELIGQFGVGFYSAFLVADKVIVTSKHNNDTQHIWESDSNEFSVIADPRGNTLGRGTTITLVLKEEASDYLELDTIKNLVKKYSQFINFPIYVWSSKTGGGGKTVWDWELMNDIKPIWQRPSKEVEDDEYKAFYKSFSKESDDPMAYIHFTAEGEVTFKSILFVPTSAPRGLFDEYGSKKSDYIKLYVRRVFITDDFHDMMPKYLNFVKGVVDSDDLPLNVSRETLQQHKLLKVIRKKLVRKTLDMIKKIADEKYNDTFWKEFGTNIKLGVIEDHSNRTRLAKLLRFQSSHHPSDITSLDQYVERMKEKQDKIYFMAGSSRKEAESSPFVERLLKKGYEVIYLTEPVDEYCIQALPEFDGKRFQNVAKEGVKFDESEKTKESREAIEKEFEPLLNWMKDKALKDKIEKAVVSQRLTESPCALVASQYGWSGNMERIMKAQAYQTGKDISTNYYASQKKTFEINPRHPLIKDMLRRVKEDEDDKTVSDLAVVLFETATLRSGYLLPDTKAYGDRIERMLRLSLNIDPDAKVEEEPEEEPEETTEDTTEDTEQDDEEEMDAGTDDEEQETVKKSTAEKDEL
In another test the target is Hsp90β (Homo sapiens, UniProt P08238).
Sequence of Hsp90β (P08238 whole entry): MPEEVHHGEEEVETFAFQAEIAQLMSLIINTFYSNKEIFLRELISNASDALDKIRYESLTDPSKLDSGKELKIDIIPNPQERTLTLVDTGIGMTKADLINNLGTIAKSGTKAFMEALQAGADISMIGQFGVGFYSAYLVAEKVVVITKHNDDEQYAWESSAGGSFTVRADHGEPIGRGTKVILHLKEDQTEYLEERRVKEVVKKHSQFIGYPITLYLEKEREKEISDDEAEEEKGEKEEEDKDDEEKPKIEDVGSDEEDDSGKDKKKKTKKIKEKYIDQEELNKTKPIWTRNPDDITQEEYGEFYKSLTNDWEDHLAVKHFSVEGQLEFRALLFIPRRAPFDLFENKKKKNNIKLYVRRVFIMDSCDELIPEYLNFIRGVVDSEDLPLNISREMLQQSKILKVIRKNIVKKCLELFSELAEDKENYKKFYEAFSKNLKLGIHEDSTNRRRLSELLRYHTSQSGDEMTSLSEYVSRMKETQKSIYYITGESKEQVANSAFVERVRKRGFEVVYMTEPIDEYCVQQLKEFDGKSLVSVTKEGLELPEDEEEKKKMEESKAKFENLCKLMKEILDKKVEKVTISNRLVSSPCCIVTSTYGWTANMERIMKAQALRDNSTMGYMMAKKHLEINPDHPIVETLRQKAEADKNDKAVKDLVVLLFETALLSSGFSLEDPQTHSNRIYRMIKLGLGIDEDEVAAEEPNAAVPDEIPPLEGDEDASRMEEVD

On to `Nc1ncn(CCCCCC(F)(F)F)c2nc(Sc3cc(Cl)cc(Cl)c3)nc1-2` [PDP-101A, 8-((3,5-Dichlorophenyl)thio)-3-(6,6,6-trifluorohexyl)-3H-purin-6-amine], for which the IC50 on Hsp90α, on Trap-1, at Grp94 and against Hsp90β was over 100 µM in each case.
Take `Nc1ncnc2c1nc(Sc1cc(Cl)cc(Cl)c1)n2CCCCCC(F)(F)F` [PDP-101B, 8-((3,5-Dichlorophenyl)thio)-9-(6,6,6-trifluorohexyl)-9H-purin-6-amine]: the IC50 at Hsp90α is over 100 µM; at Trap-1, over 100 µM; on Grp94 it was 1.65 ± 0.31 µM; against Hsp90β, over 100 µM.
On to `CC#CCn1c(Sc2cc(Cl)cc(Cl)c2)nc2c(N)ncnc21` [PDP-102A, 9-(But-2-yn-1-yl)-8-((3,5-dichlorophenyl)thio)-9H-purin-6-amine], for which the IC50 at Hsp90α was over 100 µM; on Trap-1 it was over 50 µM; on Grp94, over 5 µM; against Hsp90β, over 100 µM.
For the compound `CC#CCn1cnc(N)c2nc(Sc3cc(Cl)cc(Cl)c3)nc1-2` [PDP-102B, 3-(But-2-yn-1-yl)-8-((3,5-dichlorophenyl)thio)-3H-purin-6-amine], the IC50 is over 100 µM on Hsp90α, over 25 µM at Trap-1, 10.3 ± 0.82 µM on Grp94 and over 100 µM at Hsp90β.
Turning to `Nc1ncn(Cc2ccccc2)c2nc(Sc3cc(Cl)cc(Cl)c3)nc1-2` [PDP-107B, 3-Benzyl-8-((3,5-dichlorophenyl)thio)-3H-purin-6-amine], the IC50 is over 100 µM at Hsp90α, over 100 µM against Trap-1, 11.6 µM on Grp94 and over 100 µM at Hsp90β.
Regarding `C#CCCCn1c(Sc2cc(Br)cc(I)c2)nc2c(N)ncnc21` [PDP-108A], the IC50 on Hsp90α was over 50 µM; at Trap-1, over 50 µM; at Grp94, 0.133 µM; against Hsp90β, over 100 µM.
As for `Nc1ncnc2c1nc(Sc1cc(Cl)cc(Cl)c1)n2CCCCC(F)(F)F` [PDP-109A, 8-((3,5-Dichlorophenyl)thio)-9-(5,5,5-trifluoropentyl)-9H-purin-6-amine], the IC50 at Hsp90α is over 100 µM; at Trap-1 it was over 100 µM; on Grp94 it was 1.11 ± 0.28 µM; against Hsp90β, over 100 µM.
For the compound `Nc1ncn(CCCCC(F)(F)F)c2nc(Sc3cc(Cl)cc(Cl)c3)nc1-2` [PDP-109B, 8-((3,5-Dichlorophenyl)thio)-3-(5,5,5-trifluoropentyl)-3H-purin-6-amine], the IC50 on Hsp90α was over 100 µM; on Trap-1 it was over 100 µM; at Grp94, over 5 µM; against Hsp90β it was over 100 µM.
For `Nc1ncnc2c1nc(Sc1cc(Cl)cc(Cl)c1)n2CC1CCCCC1` [PDP-110A, 9-(Cyclohexylmethyl)-8-((3,5-dichlorophenyl)thio)-9H-purin-6-amine], the IC50 on Hsp90α was over 100 µM; on Trap-1 it was over 100 µM; at Grp94 it was 4.34 ± 0.75 µM; against Hsp90β it was over 100 µM.
Consider `C#CCCCCn1c(Sc2cc(Cl)cc(Cl)c2)nc2c(N)ncnc21` [PDP-112A, 8-((3,5-Dichlorophenyl)thio)-9-(hex-5-yn-1-yl)-9H-purin-6-amine], for which the IC50 was over 100 µM on Hsp90α, over 100 µM at Trap-1, 0.65 ± 0.05 µM at Grp94 and over 100 µM on Hsp90β.
On to `C#CCCCCn1cnc(N)c2nc(Sc3cc(Cl)cc(Cl)c3)nc1-2` [PDP-112B, 8-((3,5-Dichlorophenyl)thio)-3-(hex-5-yn-1-yl)-3H-purin-6-amine], for which the IC50 was over 100 µM on Hsp90α, over 100 µM on Trap-1, over 10 µM at Grp94 and over 100 µM against Hsp90β.
In the case of `C#CCCCn1c(Sc2ccc(Cl)cc2C(F)(F)F)nc2c(N)ncnc21` [PDP-117A], the IC50 at Hsp90α is over 100 µM; at Trap-1 it was 34.4 µM; at Grp94, 1.58 µM; on Hsp90β, over 100 µM.
For `C#CCCCn1c(Sc2cccc(Cl)c2Cl)nc2c(N)ncnc21` [PDP-119A], the IC50 at Hsp90α was over 100 µM; against Trap-1, over 100 µM; at Grp94, 1.96 µM; against Hsp90β, over 100 µM.
With `C#CCCCn1c(Sc2cc(Br)cc(OC(F)(F)F)c2)nc2c(N)ncnc21` [PDP-120A, 8-((3-Bromo-5-(trifluoromethoxy)phenyl)thio)-9-(pent-4-yn-1-yl)-9H-purin-6-amine], the IC50 at Hsp90α is over 100 µM; at Trap-1 it was 1.87 µM; at Grp94, 1.21 µM; on Hsp90β, over 100 µM.
Regarding `C#CCCCn1cnc(N)c2nc(Sc3cc(Br)cc(OC(F)(F)F)c3)nc1-2` [PDP-120B], the IC50 is over 100 µM at Hsp90α, over 100 µM at Trap-1, over 10 µM at Grp94 and over 100 µM against Hsp90β.
Consider `C#CCCCn1c(Sc2cc(Cl)c(Cl)c(Cl)c2)nc2c(N)ncnc21` [PDP-121], for which the IC50 was over 100 µM at Hsp90α, 2.2 ± 0.67 µM on Trap-1, 1.66 ± 0.48 µM at Grp94 and over 100 µM on Hsp90β.
As to `C#CCCCn1c(Sc2ccc(C(F)(F)F)cc2C(F)(F)F)nc2c(N)ncnc21` [PDP-122], the IC50 at Hsp90α was over 100 µM; against Trap-1, 7.64 ± 2.15 µM; on Grp94 it was 0.5 ± 0.39 µM; at Hsp90β, over 100 µM.
With `C#CCCCn1c(Sc2cc(Cl)cc(Cl)c2Cl)nc2c(N)ncnc21` [PDP-125A], the IC50 on Hsp90α is over 100 µM; against Trap-1 it was 6.04 ± 0.55 µM; on Grp94 it was 0.19 ± 0.01 µM; on Hsp90β, over 100 µM.
As to `C#CCCCn1cnc(N)c2nc(Sc3cc(Cl)cc(Cl)c3Cl)nc1-2` [PDP-125B], the IC50 on Hsp90α was over 100 µM; at Trap-1 it was 58.8 µM; on Grp94, 5.21 µM; against Hsp90β, over 100 µM.
As for `C#CCCCn1c(Sc2ccc(Cl)c(Cl)c2Cl)nc2c(N)ncnc21` [PDP-126A], the IC50 turned out to be 15.7 ± 0.35 µM at Hsp90α, 4.03 ± 0.89 µM against Trap-1, 0.27 ± 0.14 µM on Grp94 and 18.3 ± 1.29 µM at Hsp90β.
In the case of `C#CCCCn1cnc(N)c2nc(Sc3ccc(Cl)c(Cl)c3Cl)nc1-2` [PDP-126B], the IC50 on Hsp90α is over 100 µM; on Trap-1 it was 34.1 µM; at Grp94, 8.7 µM; at Hsp90β it was over 100 µM.
On to `Nc1ncnc2c1nc(Sc1cc(Cl)cc(Cl)c1)n2CCc1ccccc1` [PDP-127, 8-((3,5-Dichlorophenyl)thio)-9-phenethyl-9H-purin-6-amine], for which the IC50 on Hsp90α was over 100 µM; against Trap-1, over 100 µM; on Grp94, over 2.5 µM; on Hsp90β it was over 100 µM.
On to `Nc1ncn(CCC(F)(F)F)c2nc(Sc3cc(Cl)cc(Cl)c3)nc1-2` [PDP-I-13-N3, 8-((3,5-Dichlorophenyl)thio)-3-(3,3,3-trifluoropropyl)-3H-purin-6-amine], for which the IC50 at Hsp90α was over 50 µM; on Trap-1, over 100 µM; at Grp94, 12.8 ± 0.86 µM; against Hsp90β it was over 100 µM.
With `Nc1ncnc2c1nc(Sc1cc(Cl)cc(Cl)c1)n2CCC(F)(F)F` [PDP-I-13-N9, 8-((3,5-Dichlorophenyl)thio)-9-(3,3,3-trifluoropropyl)-9H-purin-6-amine], the IC50 is over 50 µM on Hsp90α, 10.1 ± 1.13 µM at Trap-1, 0.57 ± 0.08 µM at Grp94 and over 100 µM against Hsp90β.
The corresponding values for `C#CCCn1c(Sc2cc(Cl)cc(Cl)c2)nc2c(N)ncnc21` [PDP-I-14-N9, 9-(But-3-yn-1-yl)-8-((3,5-dichlorophenyl)thio)-9H-purin-6-amine] are over 100 µM, over 100 µM, 0.27 ± 0.02 µM and over 100 µM.
The corresponding values for `C#CCCCn1c(Sc2cccc3ccccc23)nc2c(N)ncnc21` [PDP-I-16-N9] are over 100 µM, over 100 µM, 2.16 ± 0.21 µM and over 100 µM.
The corresponding values for `C#CCCCn1c(Sc2ccc(Cl)c(Cl)c2)nc2c(N)ncnc21` [PDP-I-25-N9] are 4.82 ± 1.05 µM, 2.35 ± 0.09 µM, 0.42 ± 0.04 µM and 10.2 ± 1.62 µM.
For the compound `C#CCCCn1c(Sc2ccc(Br)cc2CC)nc2c(N)ncnc21` [PDP-I-54-N9], the IC50 on Hsp90α is 13.9 µM and 14 µM; against Trap-1, 4.9 ± 0.27 µM; at Grp94 it was 0.66 ± 0.1 µM; against Hsp90β, over 50 µM.
For the compound `C#CCCCn1c(Sc2cc(Br)cc(Br)c2)nc2c(N)ncnc21` [PDP-I-59-N9], the IC50 is over 100 µM on Hsp90α, over 100 µM on Trap-1, 0.26 ± 0.07 µM on Grp94 and over 100 µM on Hsp90β.
Regarding `C#CCCCn1c(Sc2ccc(Br)cn2)nc2c(N)ncnc21` [PDP-I-60-N9], the IC50 at Hsp90α was determined as 2.18 ± 0.1 µM; against Trap-1 it was 2.18 ± 0.55 µM; on Grp94, 0.53 ± 0.03 µM; on Hsp90β, 2.82 µM.
For the compound `C#CCCCn1c(Sc2cc(Cl)cc3c(Cl)ccnc23)nc2c(N)ncnc21` [PDP-I-79-N9], the IC50 is over 100 µM at Hsp90α, over 100 µM against Trap-1, 2.78 ± 0.21 µM at Grp94 and over 100 µM against Hsp90β.
